Active and inactive are the calls of the source. The rule behind the calls is not given here.

What all share (type): cell-based
The subject of one data set is HeLa. The experiment in a line: Cytotoxicity against human HeLa cells at 0.3 to 100 uM.
The target of data set [1] is T1, HIF1A/p300/CREB-binding protein (Homo sapiens, UniProt Q09472+Q16665+Q92793). Kind of data set: Inhibition of HIF-1alpha/p300/CBP (unknown origin) transcriptional activity expressed in human HeLa cells expressing HRE-Luc/CMV-Luc after 12 hrs under hypoxic condition by dual luciferase reporter gene assay. (In a reporter assay the amount or activity of a reporter protein is the signal.)

Data set [2] has as its target T1, HIF1A/p300/CREB-binding protein. Kind of data set: Inhibition of HIF-1alpha/p300/CBP PPI in human HeLa cells assessed as HIF-1alpha mRNA levels by measuring HIF-1alpha to beta2-microglobulin ratio at 30 uM after 12 hrs under hypoxic condition by qPCR analysis (reference value: 0.90 +/- 0.23).
Data set [3] has the same target. The experiment in a line: Inhibition of HIF-1alpha/p300/CBP PPI in human HeLa cells assessed as […] of HIF-1alpha accumulation at 3 to 30 uM after 12 hrs under hypoxic condition by Western blot analysis.
The target is the same in data set [4]. Kind of data set: Inhibition of HIF-1alpha/p300/CBP PPI in human HeLa cells assessed as reduction in HIF-1alpha proteasomal degradation after 12 hrs under hypoxic condition in presence of proteasome inhibitor MG132 by Western blot analysis.

As for `CC(C)CCOC(=O)C1=C(O)CC2(O)CCCC1C2` (configuration not stated), the Activity entry in the data set on HeLa is on record as “Non-Toxic”. Moreover, the IC50 (commonly the point on the concentration scale where inhibition reaches its midpoint) in data set [1] was over 100 µM.
Regarding `OCc1ccc(-c2nn(Cc3ccccc3)c3ccccc23)o1`, the Activity result in the data set on HeLa is given as “Non-Toxic”.
`CC(C)CC(=O)OC1=C(C(=O)OCc2ccccc2)C2CCCC(OC(=O)CC(C)C)(C1)C2` (configuration not stated): the Ratio in data set [2] worked out at 1.2. Also, the inhibition entry in data set [3] is “inactive”. In the data set with HeLa, the Activity result is recorded as “Non-Toxic”. Also, the IC50 in data set [1] was determined as 3 µM. For the same compound, the inhibition result in data set [4] is “Dose-dependent effect”.
With `O=C(OCc1ccccc1)C1=C(O)CC2(O)CCCC1C2` (configuration not stated), the Activity entry in the data set on HeLa was “Non-Toxic”. In data set [1], this compound yielded an IC50 of over 100 µM.
In the same order, the values of `CC(C)CCOC(=O)C1=C(OC(=O)CC(C)C)CC2(OC(=O)CC(C)C)CCCC1C2` (configuration not stated) are “Non-Toxic” and 6.3 µM.

The values are drawn from ChEMBL document CHEMBL4118167, “Discovery of bicyclo[3,3,1]non-2-ene as a novel skeleton for HIF-1 inhibitors” (Bioorg Med Chem, 2018).
